Test results as given in ChEMBL document CHEMBL1201861, “Genomics of Drug Sensitity in Cancer screening data, Wellcome Trust Sanger Institute”.

Columns and labels:
Experiment in all cases: cells
[1] = tested on: ATN-1; assay type: functional, cell-based, Homo sapiens; details: Homo sapiens, ATN-1;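 note: growth inhibition of human ATN-1 cells, read out with a cell viability assay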
Description: SANGER: Inhibition of human ATN-1 cell growth in a cell viability assay.

[2] = tested on: SNU1; assay type: functional, cell-based, Homo sapiens; details: Homo sapiens, SNU1;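 note: growth inhibition of human NCI-SNU-1 cells, measured with a cell viability assay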
Description: SANGER: Inhibition of human NCI-SNU-1 cell growth in a cell viability assay.

[3] = tested on: BT-474; assay type: functional, cell-based, Homo sapiens; details: Homo sapiens, BT-474
Description: SANGER: Inhibition of human BT-474 cell growth in a cell viability assay.

[4] = tested on: IST-SL1; assay type: functional, cell-based, Homo sapiens; details: Homo sapiens, IST-SL1;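 note: growth inhibition of human IST-SL1 cells, read out with a cell viability assay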
Description: SANGER: Inhibition of human IST-SL1 cell growth in a cell viability assay.

[5] = tested on: D283 Med; assay type: functional, cell-based, Homo sapiens; details: Homo sapiens, D283 Med
Description: SANGER: Inhibition of human D-283MED cell growth in a cell viability assay.

[6] = tested on: KM-H2; assay type: functional, cell-based, Homo sapiens; details: Homo sapiens, KM-H2;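 note: growth inhibition of KM-H2 cells, read out by a cell viability assay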
Description: SANGER: Inhibition of human KM-H2 cell growth in a cell viability assay.

[7] = tested on: HEL; assay type: functional, cell-based, Homo sapiens; details: Homo sapiens, HEL;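 note: growth inhibition of HEL cells, read out with a cell viability assay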
Description: SANGER: Inhibition of human HEL cell growth in a cell viability assay.

[8] = tested on: RKO; assay type: functional, cell-based, Homo sapiens; details: Homo sapiens, RKO;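 note: growth inhibition of human RKO cells, read out with a cell viability assay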
Description: SANGER: Inhibition of human RKO cell growth in a cell viability assay.

[9] = tested on: UACC-257; assay type: functional, cell-based, Homo sapiens; details: Homo sapiens, UACC-257
Description: SANGER: Inhibition of human UACC-257 cell growth in a cell viability assay.

[10] = tested on: J-RT3-T3-5; assay type: functional, cell-based, Homo sapiens; details: Homo sapiens, J-RT3-T3-5;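 note: cell viability assay measuring growth inhibition of human J-RT3-T3-5 cells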
Description: SANGER: Inhibition of human J-RT3-T3-5 cell growth in a cell viability assay.

[11] = tested on: PSN1; assay type: functional, cell-based, Homo sapiens; details: Homo sapiens, PSN1;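 note: suppression of growth of human PSN1 cells, read out by a cell viability assay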
Description: SANGER: Inhibition of human PSN1 cell growth in a cell viability assay.

[12] = tested on: NEC8; assay type: functional, cell-based, Homo sapiens; details: Homo sapiens, NEC8;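 note: growth inhibition of human NEC8 cells, read out by a cell viability assay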
Description: SANGER: Inhibition of human NEC8 cell growth in a cell viability assay.

[13] = tested on: TK-10; assay type: functional, cell-based, Homo sapiens; details: Homo sapiens, TK-10;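 note: growth inhibition of TK-10 cells, read out in a cell viability assay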
Description: SANGER: Inhibition of human TK10 cell growth in a cell viability assay.

[14] = tested on: OVCAR-4; assay type: functional, cell-based, Homo sapiens; details: Homo sapiens, OVCAR-4;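 note: growth inhibition of human OVCAR-4 cells, measured with a cell viability assay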
Description: SANGER: Inhibition of human OVCAR-4 cell growth in a cell viability assay.

[15] = tested on: COLO-684; assay type: functional, cell-based, Homo sapiens; details: Homo sapiens, COLO-684
Description: SANGER: Inhibition of human COLO-684 cell growth in a cell viability assay.

[16] = tested on: C8166; assay type: functional, cell-based, Homo sapiens; details: Homo sapiens, C8166;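 note: growth inhibition of human C8166 cells measured by a cell viability assay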
Description: SANGER: Inhibition of human C8166 cell growth in a cell viability assay.

[17] = tested on: U-87 MG; assay type: functional, cell-based, Homo sapiens, U-87MG ATCC; details: Homo sapiens, U-87 MG;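 note: growth inhibition of the cells measured with a viability assay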
Description: SANGER: Inhibition of human U-87-MG cell growth in a cell viability assay.

[18] = tested on: LXF-289 cell line; assay type: functional, cell-based; details: Homo sapiens
Description: SANGER: Inhibition of human LXF-289 cell growth in a cell viability assay.

[19] = tested on: DU-4475; assay type: functional, cell-based, Homo sapiens; details: Homo sapiens, DU-4475
Description: SANGER: Inhibition of human DU-4475 cell growth in a cell viability assay.

[20] = tested on: U-266; assay type: functional, cell-based, Homo sapiens; details: Homo sapiens, U-266
Description: SANGER: Inhibition of human U-266 cell growth in a cell viability assay.

[21] = tested on: RS4-11; assay type: functional, cell-based, Homo sapiens; details: Homo sapiens, RS4-11;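 note: growth inhibition of RS4-11 cells, read out by a cell viability assay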
Description: SANGER: Inhibition of human RS4-11 cell growth in a cell viability assay.

[22] = tested on: D-247MG; assay type: functional, cell-based; details: Homo sapiens
Description: SANGER: Inhibition of human D-247MG cell growth in a cell viability assay.

[23] = tested on: Becker; assay type: functional, cell-based, Homo sapiens; details: Homo sapiens, Becker;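 note: growth inhibition of Becker cells, read out with a cell viability assay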
Description: SANGER: Inhibition of human Becker cell growth in a cell viability assay.

[24] = tested on: NCI-H526; assay type: functional, cell-based, Homo sapiens; details: Homo sapiens, NCI-H526;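 note: growth inhibition of the human NCI-H526 cell line, measured by a cell viability assay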
Description: SANGER: Inhibition of human NCI-H526 cell growth in a cell viability assay.

[25] = tested on: CGTH-W-1; assay type: functional, cell-based, Homo sapiens; details: Homo sapiens, CGTH-W-1;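 note: growth inhibition of human CGTH-W-1 cells measured by cell viability assay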
Description: SANGER: Inhibition of human CGTH-W-1 cell growth in a cell viability assay.

[26] = tested on: SNU-5; assay type: functional, cell-based, Homo sapiens; details: Homo sapiens, SNU-5;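 note: cell viability readout used to measure growth inhibition in human NCI-SNU-5 cells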
Description: SANGER: Inhibition of human NCI-SNU-5 cell growth in a cell viability assay.

[27] = tested on: NCI-H69; assay type: functional, cell-based, Homo sapiens; details: Homo sapiens, NCI-H69;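 note: growth inhibition of the cell line, read out with a cell viability assay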
Description: SANGER: Inhibition of human NCI-H69 cell growth in a cell viability assay.

[28] = tested on: NB10; assay type: functional, cell-based, Homo sapiens; details: Homo sapiens, NB10;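 note: growth inhibition of NB10 cells, read out by a cell viability assay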
Description: SANGER: Inhibition of human NB10 cell growth in a cell viability assay.

[29] = tested on: COLO-320-HSR; assay type: functional, cell-based, Homo sapiens; details: Homo sapiens, COLO-320-HSR;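 note: growth inhibition of COLO-320-HSR cells, determined with a cell viability assay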
Description: SANGER: Inhibition of human COLO-320-HSR cell growth in a cell viability assay.

[30] = tested on: LS-411N; assay type: functional, cell-based, Homo sapiens; details: Homo sapiens, LS-411N
[31] = tested on: DEL; assay type: functional, cell-based, Homo sapiens; details: Homo sapiens, DEL;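 note: growth inhibition of the human DEL cell line, read out with a cell viability assay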
Description: SANGER: Inhibition of human DEL cell growth in a cell viability assay.

[32] = tested on: TE-8; assay type: functional, cell-based, Homo sapiens; details: Homo sapiens, TE-8;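 note: growth inhibition of TE-8 cells, measured with a cell viability readout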
Description: SANGER: Inhibition of human TE-8 cell growth in a cell viability assay.

[33] = tested on: SK-NEP-1; assay type: functional, cell-based, Homo sapiens; details: Homo sapiens, SK-NEP-1;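 note: growth inhibition of human SK-NEP-1 cells, read out by a cell viability assay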
Description: SANGER: Inhibition of human SK-NEP-1 cell growth in a cell viability assay.

[34] = tested on: L-428; assay type: functional, cell-based, Homo sapiens; details: Homo sapiens, L-428
Description: SANGER: Inhibition of human L-428 cell growth in a cell viability assay.

[35] = tested on: COLO-800; assay type: functional, cell-based, Homo sapiens; details: Homo sapiens, COLO-800;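 note: growth inhibition of COLO-800 cells, read out with a cell viability assay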
Description: SANGER: Inhibition of human COLO-800 cell growth in a cell viability assay.

[36] = tested on: COLO-829; assay type: functional, cell-based, Homo sapiens; details: Homo sapiens, COLO-829
Description: SANGER: Inhibition of human COLO-829 cell growth in a cell viability assay.

[37] = tested on: EW-13; assay type: functional, cell-based, Homo sapiens; details: Homo sapiens, EW-13;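 note: growth inhibition of EW-13 cells, read out with a cell viability assay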
Description: SANGER: Inhibition of human EW-13 cell growth in a cell viability assay.

[38] = tested on: NCI-H1092; assay type: functional, cell-based, Homo sapiens; details: Homo sapiens, NCI-H1092;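 note: cell growth inhibition measured with a cell viability assay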
Description: SANGER: Inhibition of human NCI-H1092 cell growth in a cell viability assay.

[39] = tested on: NKM-1; assay type: functional, cell-based, Homo sapiens; details: Homo sapiens, NKM-1;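 note: growth inhibition of NKM-1 cells, read out with a cell viability assay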
Description: SANGER: Inhibition of human NKM-1 cell growth in a cell viability assay.

[40] = tested on: NOMO-1; assay type: functional, cell-based, Homo sapiens; details: Homo sapiens, NOMO-1;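 note: growth inhibition of human NOMO-1 cells measured by a cell viability assay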
Description: SANGER: Inhibition of human NOMO-1 cell growth in a cell viability assay.

[41] = tested on: NCI-H1770; assay type: functional, cell-based, Homo sapiens; details: Homo sapiens, NCI-H1770;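 note: growth inhibition of NCI-H1770 cells determined with a viability readout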
Description: SANGER: Inhibition of human NCI-H1770 cell growth in a cell viability assay.

[42] = tested on: DOHH-2; assay type: functional, cell-based, Homo sapiens; details: Homo sapiens, DOHH-2;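 note: growth inhibition of human DOHH-2 cells, read out with a cell viability assay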
Description: SANGER: Inhibition of human DOHH-2 cell growth in a cell viability assay.

[43] = tested on: DMS-114; assay type: functional, cell-based, Homo sapiens; details: Homo sapiens, DMS-114
[44] = tested on: CTV-1; assay type: functional, cell-based, Homo sapiens; details: Homo sapiens, CTV-1;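 note: growth inhibition of the cell line, read out with a cell viability assay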
Description: SANGER: Inhibition of human CTV-1 cell growth in a cell viability assay.

[45] = tested on: HCE-4; assay type: functional, cell-based; details: Homo sapiens;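 note: cell viability assay measuring inhibition of growth in the human HCE-4 cell line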
Description: SANGER: Inhibition of human HCE-4 cell growth in a cell viability assay.

[46] = tested on: SNU-C2B; assay type: functional, cell-based; details: Homo sapiens;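 note: cell viability readout used to measure compound-driven suppression of SNU-C2B cell proliferation, IC50 marking half-maximal growth inhibition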
Description: SANGER: Inhibition of human SNU-C2B cell growth in a cell viability assay.

[47] = tested on: GAK; assay type: functional, cell-based, Homo sapiens; details: Homo sapiens, GAK;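 note: cell growth inhibition read out by a cell viability assay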
Description: SANGER: Inhibition of human GAK cell growth in a cell viability assay.

[48] = tested on: A704; assay type: functional, cell-based; details: Homo sapiens;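 note: growth inhibition of human A704 cells, read out with a cell viability assay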
Description: SANGER: Inhibition of human A704 cell growth in a cell viability assay.

[49] = tested on: A498; assay type: functional, cell-based, Homo sapiens; details: Homo sapiens, A498;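 note: growth inhibition of human A498 cells, read out with a cell viability assay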
Description: SANGER: Inhibition of human A498 cell growth in a cell viability assay.

Measured: IC50

Nc1ccccc1NC(=O)c1ccc(CNC(=O)OCc2cccnc2)cc1 [ENTINOSTAT]
1830 nM: [13]
313 nM: [7]
587 nM: [19]
1540 nM: [36]
> 5000 nM: [2] | [5] | [15] | [16] | [21] | [22] | [26] | [35] | [37]; read-out: IC50 | [41] | [42] | [43]
1270 nM: [44]
635 nM: [24]
369 nM: [32]
4370 nM: [23]
2850 nM: [20]
801 nM: [27]
959 nM: [18]
2490 nM: [34]
1520 nM: [3]
1310 nM: [30]
375 nM: [31]
306 nM: [1]
3440 nM: [9]
337 nM: [10]
135 nM: [12]
811 nM: [40]
109 nM: [39]
2420 nM: [25]
1130 nM: [14]
2050 nM: [38]
1200 nM: [33]
2860 nM: [29]
1570 nM: [6]
1420 nM: [11]
2410 nM: [28]
773 nM: [4]
3770 nM: [8]
3040 nM: [17]

C=CC(=O)N1CCCC(Nc2nc(Nc3ccc(N(C)C(=O)CC)cc3)nc3[nH]cnc23)C1 (stereo unspecified)
> 10200 nM: [1] | [2] | [3] | [4] | [5] | [6] | [7] | [8] | [9] | [10] | [11] | [12] | [13] | [14] | [15] | [16] | [45] | [17] | [18] | [19] | [20] | [46] | [47] | [21] | [22] | [23] | [24] | [25] | [26] | [27] | [28] | [29] | [30] | [31] | [48] | [49] | [32] | [33] | [34] | [35] | [36] | [37]; read-out: IC50 | [38] | [39] | [40] | [41] | [42] | [43] | [44]
